row,SMILES,melting point [°C]
1,"CC(C)(C)n1cc(-c2ccc(N(C=O)c3ccccc3)cc2)c2cncnc21 [Example 166, 7-tertbutyl-5-(N-formyl-4-phenylaminophenyl)pyrrolo[2,3-d]pyrimidine]",163 to 164
2,"CC(C)n1cc(-c2ccc(C=O)cc2)c2c(N)ncnc21 [Example 160, 4-(4-amino-7-isopropyl-7H-pyrrolo[2,3-d]pyrimidin-5-yl)benzaldehyde]",198 to 200
3,"NCc1c(-c2ccc(Oc3ccccc3)cc2)c2c(N)ncnc2n1C1CCCC1 [Example 165, 6-aminomethyl-7-cyclopentyl-5-(4-phenoxyphenyl)-7H-pyrrolo[2,3-d]pyrimidin-4-ylamine]",196.5 to 197.5
4,"CC(C)n1cc(-c2ccc(Oc3ccccc3)c(CO)c2)c2c(N)ncnc21 [Example 163, 5-[4-amino-7-isopropyl-7H-pyrrolo[2,3-d]pyrimidin-5-yl]-2-phenoxybenzylalcohol]",92 to 94

# Now from value to compound:
row,melting point [°C],SMILES
1,162 to 162.5,"CC(C)S(=O)(=O)n1cc(-c2ccc(Oc3ccccc3)cc2)c2c(N)ncnc21 [Example 173, 7-isopropylsulphonyl-5-(4-phenoxyphenyl)-7H-pyrrolo[2,3-d]pyrimidin-4-ylamine]"
2,166 to 166.5,"Nc1ncnc2c1c(-c1ccc(Oc3ccc(OCCO)cc3)cc1)cn2CCO [Example 169, 7-(2-Hydroxyethyl)-5-{4-[4-(2-hydroxyethoxy)phenoxy]phenyl}pyrrolo[2,3-d]-pyrimidin-4-ylamine]"
3,199 to 200,"Nc1ncnc2c1c(-c1ccc(Oc3ccccc3)cc1)cn2C1CCC(O)CC1 (centres unmarked) [Example 175, 4-[4-amino-5-(4-phenoxyphenyl)-7H-pyrrolo[2,3-d]pyrimidin-7-yl]cyclohexanol]"
4,193 to 194,"Nc1ncnc2c1c(-c1ccc(Oc3ccccc3)cc1)cn2C1CC2CC(O)CC2C1 (centres unmarked) [Example 174, 7-[4-amino-5-(4-phenoxyphenyl)-7H-pyrrolo[2,3-d]pyrimidin-7-yl]bicyclo[3.3.0]octan-3-ol]"

# From patent US7863444B2, “4-aminopyrrolopyrimidines as kinase inhibitors” (Abbott Laboratories, priority 1997, dated 2011)
